Measured values reported in ChEMBL document CHEMBL1201862, “PubChem BioAssay data set” (2004).
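Each compound was tested at five concentrations against cells in 96-well plates for 48 hours. Abbreviation: GI50, concentration required for 50% inhibition of growth.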 Calls of active or inactive are those of the source. Rule as the data show it: active = GI50 up to about 1.1 µM and inactive = higher.

Legend:
Assay in all cases: NCI-60 cell line screen, 48 h
786-0 = test system: 786-0
CAKI-1 = test system: CAKI-1
SNB-75 = test system: SNB-75
PC-3 = test system: PC-3
T47D = test system: T47D
RPMI-8226 = test system: RPMI-8226
EKVX = test system: EKVX
MDA-MB-435 = test system: MDA-MB-435
RXF 393 = test system: RXF 393
MDA-MB-231 = test system: MDA-MB-231
BT-549 = test system: BT-549
SK-OV-3 = test system: SK-OV-3
MDA-N = test system: MDA-N
DU-145 = test system: DU-145
NCI/ADR-RES = test system: NCI/ADR-RES
Hs-578T = test system: Hs-578T
M14 = test system: M14
MCF7 = test system: MCF7
HCC 2998 = test system: HCC 2998

Measured: GI50

N=C(N)SCCc1ccncc1
inactive: 786-0 > 100 µM | CAKI-1 > 100 µM | SNB-75 > 100 µM | PC-3 > 100 µM | T47D > 100 µM | RPMI-8226 > 100 µM | EKVX > 100 µM | MDA-MB-435 > 100 µM | RXF 393 > 100 µM | MDA-MB-231 > 100 µM | BT-549 > 100 µM | SK-OV-3 > 100 µM | MDA-N > 100 µM | DU-145 > 100 µM | NCI/ADR-RES > 100 µM | Hs-578T > 100 µM | M14 > 100 µM | MCF7 > 100 µM

CCN(CC(=O)O)C(=O)c1cccnc1
inactive: 786-0 > 100 µM | CAKI-1 > 100 µM | SNB-75 > 100 µM | PC-3 > 100 µM | T47D > 100 µM | EKVX > 100 µM | MDA-MB-435 > 100 µM | RXF 393 > 100 µM | HCC 2998 > 100 µM | MDA-MB-231 > 100 µM | BT-549 > 100 µM | MDA-N > 100 µM | DU-145 > 100 µM | NCI/ADR-RES > 100 µM | Hs-578T > 100 µM | M14 > 100 µM

COc1cc2c(cc1OC)C(=O)/C(=C/c1ccc(N(C)C)cc1)CC2
inactive: 786-0 > 10 µM | CAKI-1 > 10 µM | PC-3 > 10 µM | T47D > 10 µM | RPMI-8226 > 10 µM | EKVX > 10 µM | MDA-MB-435 > 10 µM | RXF 393 > 10 µM | HCC 2998 > 10 µM | MDA-MB-231 > 10 µM | BT-549 > 10 µM | SK-OV-3 > 10 µM | MDA-N > 10 µM | DU-145 > 10 µM | NCI/ADR-RES > 10 µM | Hs-578T > 10 µM | M14 > 10 µM | MCF7 > 10 µM

N#Cc1ccsc1Nc1ccccc1[N+](=O)[O-]
inactive: 786-0 > 100 µM | CAKI-1 > 100 µM | SNB-75 > 100 µM | PC-3 > 100 µM | T47D > 100 µM | RPMI-8226 > 100 µM | EKVX 36.6 µM | MDA-MB-435 > 100 µM | RXF 393 86.9 µM | HCC 2998 > 100 µM | MDA-MB-231 31.3 µM | BT-549 38.5 µM | SK-OV-3 > 100 µM | MDA-N > 100 µM | DU-145 > 100 µM | NCI/ADR-RES > 100 µM | M14 > 100 µM | MCF7 > 100 µM

COc1ccc(N2C(=O)C3c4[nH]c5c(C)cccc5c4C4CCC(C(C)C)CC4C3C2=O)cc1 (centres undefined)
inactive: 786-0 4.38 µM | CAKI-1 15 µM | SNB-75 4.06 µM | PC-3 8.87 µM | T47D 5.96 µM | RPMI-8226 1.88 µM | EKVX 16.7 µM | MDA-MB-435 7.03 µM | HCC 2998 10.3 µM | MDA-MB-231 5.96 µM | BT-549 28.6 µM | SK-OV-3 16.4 µM | MDA-N 10.3 µM | DU-145 12.2 µM | NCI/ADR-RES 16.1 µM | Hs-578T 8.09 µM | M14 9.53 µM | MCF7 5.02 µM

O=S(=O)(Nc1ccccc1)c1ccc(-c2c3nc(c(-c4ccc(S(=O)(=O)Nc5ccccc5)cc4)c4ccc([nH]4)c(-c4ccc(S(=O)(=O)Nc5ccccc5)cc4)c4nc(c(-c5ccc(S(=O)(=O)Nc6ccccc6)cc5)c5ccc2[nH]5)C=C4)C=C3)cc1
inactive: 786-0 18.9 µM | CAKI-1 > 31.6 µM | SNB-75 11.5 µM | PC-3 > 31.6 µM | T47D > 31.6 µM | EKVX > 31.6 µM | MDA-MB-435 > 31.6 µM | RXF 393 > 31.6 µM | HCC 2998 17.7 µM | MDA-MB-231 24 µM | BT-549 > 31.6 µM | SK-OV-3 > 31.6 µM | MDA-N > 31.6 µM | DU-145 > 31.6 µM | NCI/ADR-RES > 31.6 µM | Hs-578T > 31.6 µM | M14 12.6 µM | MCF7 > 31.6 µM

C=COC(=O)N1C2CCCC(Cl)(C(C)=O)C1CC2 (centres undefined)
inactive: 786-0 > 100 µM | CAKI-1 > 100 µM | SNB-75 28.2 µM | PC-3 > 100 µM | T47D > 100 µM | RPMI-8226 > 100 µM | EKVX > 100 µM | MDA-MB-435 58.9 µM | HCC 2998 > 100 µM | MDA-MB-231 > 100 µM | BT-549 > 100 µM | SK-OV-3 > 100 µM | MDA-N 79.1 µM | DU-145 > 100 µM | NCI/ADR-RES > 100 µM | Hs-578T > 100 µM | M14 > 100 µM | MCF7 > 100 µM

C=CCSc1nnc2cc(CN3CCCC3)c(-c3ccc(Cl)cc3)nn12
inactive: 786-0 17.1 µM | CAKI-1 26.5 µM | SNB-75 19.9 µM | PC-3 17.9 µM | T47D 20.9 µM | RPMI-8226 39.1 µM | EKVX 19 µM | MDA-MB-435 20 µM | RXF 393 15.1 µM | MDA-MB-231 19.6 µM | BT-549 20.7 µM | SK-OV-3 20.2 µM | MDA-N 16.7 µM | DU-145 20.3 µM | NCI/ADR-RES 23.3 µM | Hs-578T 40.6 µM | M14 18.1 µM | MCF7 16.1 µM

Cc1ccc(P(c2ccc(C)cc2)c2ccc(C)cc2)cc1
inactive: CAKI-1 23.2 µM | SNB-75 15.2 µM | PC-3 30.6 µM | T47D 16.3 µM | RPMI-8226 6.05 µM | EKVX 28.3 µM | MDA-MB-435 19.1 µM | RXF 393 15.5 µM | HCC 2998 16.1 µM | MDA-MB-231 25.9 µM | BT-549 35.4 µM | SK-OV-3 30.4 µM | MDA-N 21.9 µM | DU-145 16.5 µM | NCI/ADR-RES 27.5 µM | Hs-578T 15.5 µM | M14 19.3 µM | MCF7 31.3 µM

CC(C)C(=O)OCN(C)c1nc(N(C)COC(=O)C(C)C)nc(N(C)COC(=O)C(C)C)n1
inactive: 786-0 28.5 µM | CAKI-1 34.5 µM | SNB-75 17.8 µM | PC-3 27.7 µM | T47D 30.3 µM | RPMI-8226 22.8 µM | EKVX > 100 µM | MDA-MB-435 17.8 µM | MDA-MB-231 25.2 µM | BT-549 20.8 µM | MDA-N 22.2 µM | DU-145 37.5 µM | NCI/ADR-RES 34.8 µM | Hs-578T 17.9 µM | M14 17 µM | MCF7 35.6 µM

COc1cc(-c2cc(-c3ccccc3)nc(-c3c(OC)ccc4c(C)cc(=O)oc34)c2)cc(OC)c1OC
inactive: 786-0 > 100 µM | CAKI-1 > 100 µM | SNB-75 > 100 µM | PC-3 > 100 µM | T47D > 100 µM | EKVX > 100 µM | MDA-MB-435 > 100 µM | RXF 393 > 100 µM | HCC 2998 > 100 µM | MDA-MB-231 > 100 µM | BT-549 > 100 µM | SK-OV-3 > 100 µM | MDA-N > 100 µM | DU-145 > 100 µM | NCI/ADR-RES > 100 µM | Hs-578T > 100 µM | M14 > 100 µM | MCF7 74.1 µM

C=C(Br)C(C)(Cl)CCC(Br)C(C)(C)Cl (centres undefined)
inactive: 786-0 20.6 µM | CAKI-1 > 100 µM | PC-3 39.4 µM | T47D > 100 µM | EKVX > 100 µM | MDA-MB-435 28.4 µM | RXF 393 24.7 µM | HCC 2998 > 100 µM | MDA-MB-231 42.3 µM | BT-549 > 100 µM | SK-OV-3 > 100 µM | MDA-N 48 µM | DU-145 > 100 µM | NCI/ADR-RES 72.1 µM | Hs-578T 89.7 µM | M14 32.9 µM | MCF7 55.3 µM

O=c1c2c3c(sc2nc2n1N=C(c1ccc([N+](=O)[O-])cc1)CS2)CCCC3
inactive: 786-0 > 100 µM | CAKI-1 > 100 µM | SNB-75 > 100 µM | PC-3 > 100 µM | T47D > 100 µM | RPMI-8226 > 100 µM | EKVX > 100 µM | MDA-MB-435 > 100 µM | RXF 393 > 100 µM | HCC 2998 > 100 µM | MDA-MB-231 > 100 µM | BT-549 > 100 µM | SK-OV-3 > 100 µM | MDA-N > 100 µM | DU-145 > 100 µM | NCI/ADR-RES > 100 µM | Hs-578T > 100 µM | MCF7 > 100 µM

O=C(O)CSC(CC1(c2ccc(Cl)cc2)NC(=O)CS1)c1ccc(Cl)cc1 (centres undefined)
inactive: 786-0 > 100 µM | CAKI-1 > 100 µM | SNB-75 > 100 µM | PC-3 > 100 µM | T47D 80.9 µM | RPMI-8226 > 100 µM | EKVX > 100 µM | MDA-MB-435 > 100 µM | MDA-MB-231 > 100 µM | BT-549 > 100 µM | SK-OV-3 > 100 µM | MDA-N > 100 µM | DU-145 > 100 µM | NCI/ADR-RES > 100 µM | Hs-578T > 100 µM | M14 > 100 µM | MCF7 77.1 µM

O=S(=O)(O)Nc1ccc(-c2nc3ccccc3s2)cc1Cl
inactive: 786-0 > 100 µM | CAKI-1 > 100 µM | SNB-75 > 100 µM | PC-3 > 100 µM | T47D > 100 µM | RPMI-8226 > 100 µM | EKVX > 100 µM | MDA-MB-435 > 100 µM | RXF 393 > 100 µM | HCC 2998 > 100 µM | MDA-MB-231 > 100 µM | BT-549 > 100 µM | SK-OV-3 > 100 µM | MDA-N > 100 µM | DU-145 > 100 µM | NCI/ADR-RES > 100 µM | Hs-578T > 100 µM | M14 > 100 µM
